Where a name gives a salt, the structure may show the parent alone. Blank lines part the entries; values can stand above or below the compound they belong to. The source made the active and inactive calls. The rule behind the calls is not given here. Where a SMILES comes first, the peptide text is derived from it. Bridges are numbered along the chain shown (N, C = ends). [ ]: non-standard residue; d: D form. The star is where a group is joined. X1 = CC[C@H](C)CCCCC(=O)*; Dab = NCC[C@H](N)C(=O)O; Tfa = O=C(C(F)(F)F)*
Assays:
Staphylococcus aureus [1] = assay: Potentiation of streptomycin-induced antibacterial activity against Staphylococcus aureus assessed as streptomycin MIC incubated for 24 hrs by microplate reader method; assay type: functional
Staphylococcus aureus [2] = assay: Potentiation of streptomycin-induced antibacterial activity against Staphylococcus aureus assessed as fold change in streptomycin MIC incubated for 24 hrs by microplate reader method; assay type: functional
Lipid bilayer [3] = assay: Binding affinity to bacterial inner membrane mimic DOPE/DOPG (3:1) large unilamellar vesicles assessed as calcein leakage at 20 uM by fluorescence based assay
Escherichia coli [4] = assay: Potentiation of polymyxin B-induced antibacterial activity against Escherichia coli assessed as polymyxin B MIC incubated for 24 hrs by microplate reader method; assay type: functional
Staphylococcus aureus [5] = assay: Antibiofilm activity against Staphylococcus aureus assessed as biofilm eradication at 2XMBEC incubated for 12 hrs by SYTO9/PI staining based microscopic analysis; assay type: functional, organism-based
Escherichia coli [6] = assay: Antibiofilm activity against Escherichia coli assessed as biofilm eradication incubated for 24 hrs by crystal violet staining assay; assay type: functional
Pseudomonas aeruginosa [7] = assay: Potentiation of polymyxin B-induced antibacterial activity against Pseudomonas aeruginosa assessed as polymyxin B MIC incubated for 24 hrs by microplate reader method; assay type: functional
Staphylococcus aureus [8] = assay: Antibiofilm activity against Staphylococcus aureus assessed as biofilm eradication incubated for 24 hrs by crystal violet staining assay; assay type: functional
[9] = Inhibition of transcriptional machinery using Puc19-lacCONS plasmid DNA and Escherichia coli RNA polymerase-sigma70 holoenzyme at 40 uM incubated for 35 mins followed by NTP addition for 30 mins by spectrofluorometer analysis; assay type: functional; details: time 65.0 min
[10] = Hemolytic activity against mouse RBC at 1000 uM measured after 1 hr by microplate reader analysis; assay type: cell-based, Erythrocyte; details: mouse red blood cells (erythrocytes), read-out: Activity
Lipid bilayer [11] = assay: Binding affinity to mammalian membrane mimic DOPC/40% cholesterol assessed as calcein leakage at 20 uM by fluorescence based assay; assay type: ADME
Escherichia coli [12] = assay: Antibiofilm activity against Escherichia coli assessed as biofilm eradication at 2XMBEC incubated for 12 hrs by SYTO9/PI staining based microscopic analysis; assay type: functional, organism-based
Cell membrane [13] = assay: Disruption of membrane integrity in Staphylococcus aureus at 2 times MIC measured after 20 mins by SEM analysis
Staphylococcus aureus [14] = assay: Antibacterial activity against Staphylococcus aureus assessed as reduction in microbial growth after 24 hrs in presence of streptomycin by microplate reader method; assay type: functional
Lipid bilayer [15] = assay: Binding affinity to bacterial inner membrane mimic POPE/POPG (3:1) LUVs assessed as increase in intensity by one-dimensional 19F NMR based analysis
Staphylococcus aureus [16] = assay: Synergistic antibacterial activity against Staphylococcus aureus assessed as fractional inhibitory concentration index incubated for 24 hrs in presence of streptomycin; assay type: functional
Cell membrane [17] = assay: Disruption of membrane integrity in Escherichia coli at 2 times MIC measured after 20 mins by SEM analysis
Escherichia coli [18] = assay: Antibiofilm activity against Escherichia coli assessed as as inhibition of biofilm formation incubated for 48 hrs by crystal violet staining assay; assay type: functional
Staphylococcus aureus [19] = assay: Antibacterial activity against Staphylococcus aureus assessed as reduction in microbial growth after 24 hrs by microplate reader method; assay type: functional
Escherichia coli [20] = assay: Antibacterial activity against Escherichia coli assessed as reduction in microbial growth after 24 hrs by microplate reader method; assay type: functional
HeLa = assay: Cytotoxicity against human HeLa cells assessed as reduction in cell viability incubated for 48 hrs by MTT assay; assay type: cell-based
Pseudomonas aeruginosa [21] = assay: Antibacterial activity against Pseudomonas aeruginosa assessed as reduction in microbial growth after 24 hrs in presence of polymyxin B by microplate reader method; assay type: functional
Escherichia coli [22] = assay: Antibacterial activity against Escherichia coli assessed as reduction in microbial growth after 24 hrs in presence of polymyxin B by microplate reader method; assay type: functional
Pseudomonas aeruginosa [23] = assay: Antibacterial activity against Pseudomonas aeruginosa assessed as reduction in microbial growth after 24 hrs by microplate reader method; assay type: functional
Pseudomonas aeruginosa [24] = assay: Synergistic antibacterial activity against Pseudomonas aeruginosa assessed as fractional inhibitory concentration index incubated for 24 hrs in presence of Polymyxin B; assay type: functional
BE(2)-C = assay: Cytotoxicity against human BE(2)-C cells assessed as reduction in cell viability incubated for 48 hrs by MTT assay; assay type: cell-based
Escherichia coli [25] = assay: Synergistic antibacterial activity against Escherichia coli assessed as fractional inhibitory concentration index incubated for 24 hrs in presence of Polymyxin B; assay type: functional
[26] = target: NAD-dependent histone deacetylase SIR2 (Saccharomyces cerevisiae S288c) (UniProt P06700); assay: Inhibition of yeast sirtuin2-mediated Ura3 transcriptional silencing at telomeric locus assessed as yeast killing at 50 uM incubated for 72 hrs in presence of FOA by absorbance based analysis
Sequence of NAD-dependent histone deacetylase SIR2 (Saccharomyces cerevisiae S288c) (P06700 whole entry): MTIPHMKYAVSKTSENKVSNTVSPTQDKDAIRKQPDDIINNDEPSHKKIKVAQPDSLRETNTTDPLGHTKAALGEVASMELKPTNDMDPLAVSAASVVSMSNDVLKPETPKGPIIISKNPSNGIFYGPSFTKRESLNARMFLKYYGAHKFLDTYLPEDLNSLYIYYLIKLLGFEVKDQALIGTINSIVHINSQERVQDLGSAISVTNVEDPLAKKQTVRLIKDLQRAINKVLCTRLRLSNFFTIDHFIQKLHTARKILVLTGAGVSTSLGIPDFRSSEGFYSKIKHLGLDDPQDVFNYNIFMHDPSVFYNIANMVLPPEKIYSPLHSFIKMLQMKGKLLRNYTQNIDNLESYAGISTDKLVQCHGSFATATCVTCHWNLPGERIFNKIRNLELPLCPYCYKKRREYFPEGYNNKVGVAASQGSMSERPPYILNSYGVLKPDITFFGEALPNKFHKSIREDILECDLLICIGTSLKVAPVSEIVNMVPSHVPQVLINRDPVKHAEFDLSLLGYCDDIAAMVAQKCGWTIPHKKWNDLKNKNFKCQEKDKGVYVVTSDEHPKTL

Staphylococcus aureus [27] = assay: Antibiofilm activity against Staphylococcus aureus assessed as inhibition of biofilm formation incubated for 48 hrs by crystal violet staining assay; assay type: functional

MIC (Staphylococcus aureus [1]): 0.38 µM
Activity (Lipid bilayer [3]): 70%
MIC (Escherichia coli [4]): 0.05 µM
MIC (Pseudomonas aeruginosa [7]): 0.1 µM
Activity (Lipid bilayer [11]): < 20%
Activity (Cell membrane [13]): inactive
MIC (Staphylococcus aureus [14]): 0.63 µM
Activity (Lipid bilayer [15]): Active
Activity (Cell membrane [17]): inactive
MIC (Staphylococcus aureus [19]): 1.5 µM
MIC (Escherichia coli [20]): 125 µM
MIC (Pseudomonas aeruginosa [21]): 25 µM
MIC (Escherichia coli [22]): 7.81 µM
MIC (Pseudomonas aeruginosa [23]): > 250 µM
SMILES: CC(=O)N[C@@H](CCCCN)C(=O)NCC(=O)N[C@@H](CC(C)C)C(=O)N[C@@H](CCCNC(=N)N)C(=O)N[C@@H](CCCCNC(=O)C(F)(F)F)C(=O)N[C@@H](Cc1ccccc1)C(=O)NCC(=O)N[C@@H](C)C(=O)N[C@@H](CCCCNC(=O)C(F)(F)F)C(=O)N[C@@H](CCCNC(=N)N)C(=O)N[C@@H](Cc1cnc[nH]1)C(=O)N[C@@H](CCCNC(=N)N)C(=O)N[C@@H](CS)C(N)=O (Ac-KGLRK(Tfa)FGAK(Tfa)RHRC-NH2)
fold change (FC) (Staphylococcus aureus [2]): 6
Activity (Staphylococcus aureus [5]): Active
MBEC (Escherichia coli [6]): inactive
MBEC (Staphylococcus aureus [8]): 12.5 µM
inhibition [9]: Active
hemolysis at 1 h, 1000 µM [10]: < 5%
Activity (Escherichia coli [12]): Active
fractional inhibitory concentration index (FICI) (Staphylococcus aureus [16]): 0.3
MBIC (Escherichia coli [18]): inactive
IC50 (HeLa): 84.4 µM
fractional inhibitory concentration index (FICI) (Pseudomonas aeruginosa [24]): 0.36
IC50 (BE(2)-C): 81.6 µM
fractional inhibitory concentration index (FICI) (Escherichia coli [25]): 0.19
inhibition [26]: Active
MBIC (Staphylococcus aureus [27]): 6.3 µM

MIC (Escherichia coli [20]): 0.09 µM
MIC (Pseudomonas aeruginosa [23]): 0.15 µM
SMILES: CC[C@H](C)CCCCC(=O)N[C@@H](CCN)C(=O)N[C@H](C(=O)N[C@@H](CCN)C(=O)N[C@H]1CCNC(=O)[C@H]([C@@H](C)O)NC(=O)[C@H](CCN)NC(=O)[C@H](CCN)NC(=O)[C@H](CC(C)C)NC(=O)[C@@H](Cc2ccccc2)NC(=O)[C@H](CCN)NC1=O)[C@@H](C)O (X1-[Dab]T[Dab][Dab][Dab][dF]L[Dab][Dab]T; lactam 4-C)

MIC (Staphylococcus aureus [19]): 2.2 µM
SMILES: CN[C@@H]1[C@H](O[C@H]2[C@H](O[C@H]3[C@H](O)[C@@H](O)[C@H](N=C(N)N)[C@@H](O)[C@@H]3N=C(N)N)O[C@@H](C)[C@]2(O)C=O)O[C@@H](CO)[C@H](O)[C@H]1O [STREPTOMYCIN]

SMILES: CC(=O)N[C@@H](Cc1ccc(O)cc1)C(=O)NCC(=O)N[C@@H](CCCNC(=N)N)C(=O)N[C@@H](CCCCN)C(=O)N[C@@H](CCCCN)C(=O)N[C@@H](CCCNC(=N)N)C(=O)N[C@@H](CCCNC(=N)N)C(=O)N[C@@H](CCC(N)=O)C(=O)N[C@@H](CCCNC(=N)N)C(=O)N[C@@H](CCCNC(=N)N)C(=O)N[C@@H](CCCNC(=N)N)C(=O)O
MIC (Staphylococcus aureus [19]): 1.5 µM
MIC (Escherichia coli [20]): 50 µM
MIC (Pseudomonas aeruginosa [23]): > 100 µM
